Results on 2 molecules are retold here after patent US12077503B2, “Substituted cyclic amides and their use as herbicides” (FMC CORPORATION, priority 2015, dated 2024).

Format in all cases: in vivo
Assay [1] concerns pigweed (Amaranthus retroflexus). The assay is described as follows: Test A preemergence. The following applies: Amaranthus retroflexus, pre-emergence, 240 h; for pest or weed control at 125 g/ha: 125 g ai/ha; for pest or weed control at 500 g/ha: 500 g ai/ha.
For assay [2], the system named is giant foxtail (Setaria faberii). Description: Test A postemergence. The following applies: Setaria faberi, post-emergence, 240 h; for pest or weed control at 125 g/ha: 125 g ai/ha. An outline of the steps: (§1)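 Seeds sprayed preemergence with a directed soil spray, or plants at 2 to 10 cm height and one- to two-leaf stage sprayed postemergence, with test chemicals in a non-phytotoxic solvent mixture containing surfactant, in loam soil–sand blend. Injury rated visually against untreated controls after about 10 d in greenhouse, 0 (no effect) to 100 (complete control).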

Assay [3] relates to pigweed (Amaranthus retroflexus). Description: Test A postemergence. The following applies: Amaranthus retroflexus, post-emergence, 240 h; for pest or weed control at 125 g/ha: 125 g ai/ha. An outline of the steps: as §1
The subject of assay [4] is wheat (Triticum aestivum). Description: Test A postemergence. The following applies: Triticum aestivum, post-emergence, 240 h; for plant injury at 125 g/ha: 125 g ai/ha. An outline of the steps: as §1
In the next assay the test system is Kochia (Kochia scoparia). Description: Test A postemergence. The settings on record: Bassia scoparia, post-emergence, 240 h; for pest or weed control at 125 g/ha: 125 g ai/ha. In outline: as §1
In assay [5] the test system is ragweed (common ragweed, Ambrosia elatior). The assay is described as follows: Test A postemergence. The following applies: Ambrosia artemisiifolia, post-emergence, 240 h; for pest or weed control at 125 g/ha: 125 g ai/ha. An outline of the steps:
as §1

The next assay has as its system corn (Zea mays). The assay is described as follows: Test A postemergence. The settings on record: Zea mays, post-emergence, 240 h. In outline: as §1
The subject of assay [6] is barnyardgrass (Echinochloa crus-galli). Description: Test A postemergence. The following applies: Echinochloa crus-galli, post-emergence, 240 h; for pest or weed control at 125 g/ha: 125 g ai/ha. In outline: as §1
Assay [7] relates to blackgrass (Alopecurus myosuroides). Description: Test A postemergence. The settings on record: Alopecurus myosuroides, post-emergence, 240 h; for pest or weed control at 125 g/ha: 125 g ai/ha. An outline of the steps:
as §1

The test system of assay [8] is ryegrass, Italian (Italian ryegrass, Lolium multiflorum). Description: Test A postemergence. The following applies: Lolium multiflorum, post-emergence, 240 h; for pest or weed control at 125 g/ha: 125 g ai/ha. In outline: as §1
The subject of assay [9] is Galium (catchweed bedstraw, Galium aparine). Description: Test A postemergence. The settings on record: Galium, post-emergence, 240 h; for pest or weed control at 125 g/ha: 125 g ai/ha. An outline of the steps: as §1
For assay [10], the system named is sedge, umbrella (small-flower umbrella sedge, Cyperus difformis). Description: Test B flooded paddy test. The settings on record: Cyperus difformis, 250 g ai/ha, Flood, read-out: Sedge, Umbrella plant response rating. An outline of the steps:
(§2)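 Plants at 2-leaf stage flooded to 3 cm above soil, with compounds applied directly to paddy water and that depth maintained. Plants kept in greenhouse 13–15 d. Visual rating versus controls on a 0 (no effect) to 100 (complete control) scale.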

The subject of assay [11] is barnyardgrass (Echinochloa crus-galli). Description: Test B flooded paddy test. The settings on record: Echinochloa crus-galli, 250 g ai/ha, Flood, read-out: Barnyardgrass plant response rating. In outline:
as §2

The test system of the next assay is rice (Oryra sativa). Description: Test B flooded paddy test. The settings on record: Oryza sativa, 250 g ai/ha, Flood, read-out: Rice plant response rating. In outline: as §2
The subject of assay [12] is ducksalad (Heteranthera limosa). Description: Test B flooded paddy test. The following applies: Heteranthera limosa, 250 g ai/ha, Flood, read-out: Ducksalad plant response rating. An outline of the steps: as §2
The mark [13] stands for this setting: preemergence, 0 to 100 scale where 0 is no effect and 100 is complete control, read-out: Pigweed plant response rating.
Where [14] appears, read: 0 to 100 scale where 0 is no effect and 100 is complete control.
The mark [15] stands for this setting: scale of 0 to 100 where 0 is no effect and 100 is complete control.

Read-outs that look alike come from different tables or passages of the source.

`CSc1ccccc1NC(=O)[C@H]1C(=O)N(C)C[C@@H]1c1ccc(OC(F)F)cc1` [Compound 1212]: the pest or weed control at 125 g/ha in assay [1] (preemergence, visual injury rating, 0 to 100 scale where 0 is no effect and 100 is complete control, approximately 10 d, read-out: Pigweed plant response rating) was 80%; in assay [2] (postemergence, visual injury vs untreated controls after approx. 10 d, 0 = no effect, 100 = complete control, read-out: Foxtail, Giant plant response rating (0 to 100 scale)), 70%; in [3] (postemergence, visual injury vs untreated controls after approx. 10 d, 0 = no effect, 100 = complete control, read-out: Pigweed plant response rating (0 to 100 scale)), 50%; in the assay with Kochia (Kochia scoparia) (postemergence, visual injury vs untreated controls after approx. 10 d, 0 = no effect, 100 = complete control, read-out: Kochia plant response rating (0 to 100 scale)) it was 60%; in [5] (postemergence, visual injury vs untreated controls after approx. 10 d, 0 = no effect, 100 = complete control, read-out: Ragweed plant response rating (0 to 100 scale)), 0%; in assay [6] (postemergence, visual injury vs untreated controls after approx. 10 d, 0 = no effect, 100 = complete control, read-out: Barnyardgrass plant response rating (0 to 100 scale)), 80%. The pest or weed control at 125 g/ha came out at 0% in assay [7] (postemergence, visual injury vs untreated controls after approx. 10 d, 0 = no effect, 100 = complete control, read-out: Blackgrass plant response rating (0 to 100 scale)); 0% in assay [8] (postemergence, visual injury vs untreated controls after approx. 10 d, 0 = no effect, 100 = complete control, read-out: Ryegrass, Italian plant response rating (0 to 100 scale)); 50% in assay [9] (postemergence, visual injury vs untreated controls after approx. 10 d, 0 = no effect, 100 = complete control, read-out: Galium plant response rating (0 to 100 scale)). Besides, the pest or weed control at 500 g/ha in [1] (setting [13]) worked out at 90%; in assay [2] (500 g ai/ha, postemergence, 0 to 100 scale, 0 is no effect, 100 is complete control, read-out: Foxtail, Giant plant response rating), 90%; in [3] (500 g ai/ha, postemergence, 0 to 100 scale, 0 is no effect, 100 is complete control, read-out: Pigweed plant response rating) it was 70%; in the assay with Kochia (Kochia scoparia) (500 g ai/ha, postemergence, 0 to 100 scale, 0 is no effect, 100 is complete control, read-out: Kochia plant response rating), 80%; in assay [5] (500 g ai/ha, postemergence, 0 to 100 scale, 0 is no effect, 100 is complete control, read-out: Ragweed plant response rating), 30%; in [6] (500 g ai/ha, postemergence, 0 to 100 scale, 0 is no effect, 100 is complete control, read-out: Barnyardgrass plant response rating), 100%. The pest or weed control at 500 g/ha in assay [7] (500 g ai/ha, postemergence, 0 to 100 scale, 0 is no effect, 100 is complete control, read-out: Blackgrass plant response rating) is 30%; in assay [8] (500 g ai/ha, postemergence, 0 to 100 scale, 0 is no effect, 100 is complete control, read-out: Ryegrass, Italian plant response rating) it was 20%; in assay [9] (500 g ai/ha, postemergence, 0 to 100 scale, 0 is no effect, 100 is complete control, read-out: Galium plant response rating), 60%. Moreover, the plant injury at 125 g/ha in assay [4] (postemergence, visual injury vs untreated controls after approx. 10 d, 0 = no effect, 100 = complete control, read-out: Wheat plant response rating (0 to 100 scale)) was determined as 0%; in the assay with corn (Zea mays) (125 g ai/ha, postemergence, visual injury vs untreated controls after approx. 10 d, 0 = no effect, 100 = complete control, read-out: Corn plant response rating (0 to 100 scale)), 0%. For the same molecule, the plant injury at 500 g/ha in assay [4] (500 g ai/ha, postemergence, 0 to 100 scale, 0 is no effect, 100 is complete control, read-out: Wheat plant response rating) was 40%; in the assay on corn (Zea mays) (500 g ai/ha, postemergence, 0 to 100 scale, 0 is no effect, 100 is complete control, read-out: Corn plant response rating), 20%. Moreover, the pest or weed control at 250 g/ha turned out to be 0% in assay [10] (setting [14]), 0% in [11] (setting [14]), 0% with rice (Oryra sativa) (setting [14]) and 95% in assay [12] (setting [14]).

Turning to `O=C(Nc1cccc(F)c1F)[C@H]1C(=O)N(C2CC2)CC[C@@H]1c1cccc(C(F)(F)F)c1` [Compound 925], the pest or weed control at 125 g/ha was 0% in assay [1] (setting [13]); 40% in [2] (Postemergence, visual injury after approximately 10 d, 0 to 100 scale where 0 is no effect and 100 is complete control, read-out: Plant response rating, Foxtail, Giant); 0% in assay [3] (Postemergence, visual injury after approximately 10 d, 0 to 100 scale where 0 is no effect and 100 is complete control, read-out: Plant response rating, Pigweed); 0% in the assay with Kochia (Kochia scoparia) (Postemergence, visual injury after approximately 10 d, 0 to 100 scale where 0 is no effect and 100 is complete control, read-out: Plant response rating, Kochia); 0% in [5] (Postemergence, visual injury after approximately 10 d, 0 to 100 scale where 0 is no effect and 100 is complete control, read-out: Plant response rating, Ragweed); 40% in [6] (Postemergence, visual injury after approximately 10 d, 0 to 100 scale where 0 is no effect and 100 is complete control, read-out: Plant response rating, Barnyardgrass). Further, the pest or weed control at 125 g/ha in assay [7] (Postemergence, visual injury after approximately 10 d, 0 to 100 scale where 0 is no effect and 100 is complete control, read-out: Plant response rating, Blackgrass) came to 0%; in [8] (Postemergence, visual injury after approximately 10 d, 0 to 100 scale where 0 is no effect and 100 is complete control, read-out: Plant response rating, Ryegrass, Italian), 0%; in assay [9] (Postemergence, visual injury after approximately 10 d, 0 to 100 scale where 0 is no effect and 100 is complete control, read-out: Plant response rating, Galium), 0%. In addition, in assay [1] (Preemergence, visual injury vs untreated controls after approximately 10 d, read-out: Pigweed plant response rating (0 to 100 scale where 0 is no effect and 100 is complete control)), the pest or weed control at 500 g/ha was determined as 0%. The plant injury at 125 g/ha in [4] (Postemergence, visual injury after approximately 10 d, 0 to 100 scale where 0 is no effect and 100 is complete control, read-out: Plant response rating, Wheat) is 0%. In the assay on corn (Zea mays) (125 g ai/ha, Postemergence, visual injury after approximately 10 d, 0 to 100 scale where 0 is no effect and 100 is complete control), this molecule displayed a Corn plant response rating (crop injury, 0 = no effect, 100 = complete kill) at 125 g/ha of 0%. Further, the pest or weed control at 250 g/ha (in assay [10] (setting [15]); in [11] (setting [15]); with rice (Oryra sativa) (setting [15]); in [12] (setting [15])) was 0% in each case.
